Eight compounds from PubChem BioAssay (NCI) can be followed below.

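Growth conditions: 96-well plates. Treatment: test compound, 48 hours, 5 concentrations. Analysis: linear interpolation between bracketing concentrations; unreached endpoints set to highest concentration. At the GI50, growth is halved. TGI is the concentration that stops growth completely.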 Bounds are passed on as bounds.

Some test systems named below: UO-31 renal; RPMI-8226 leukemia; SK-MEL-28 melanoma; BT-549 breast; SK-MEL-2 melanoma; DU-145 prostate; NCI/ADR-RES ovarian; PC-3 prostate; NCI-H460 lung; HCC-2998 colon.
Common to all, as to test: NCI tumour cell line growth inhibition, 48 h

Regarding `CCOC(=O)c1cc2cc(OCc3ccccc3)ccc2[nH]1`, the GI50 with UO-31 renal, with RPMI-8226 leukemia, with SK-MEL-28 melanoma, in the test on BT-549 breast, in the test on SK-MEL-2 melanoma and with DU-145 prostate was > 100 µM in each case. For the same compound, the GI50 in the test with NCI/ADR-RES ovarian, in the test on PC-3 prostate, with NCI-H460 lung and in the test with HCC-2998 colon was > 100 µM throughout. Also, the TGI with UO-31 renal, with RPMI-8226 leukemia, in the test on SK-MEL-28 melanoma, with BT-549 breast, in the test with SK-MEL-2 melanoma and in the test on DU-145 prostate was > 100 µM each time. Further, the TGI with NCI/ADR-RES ovarian, with PC-3 prostate, with NCI-H460 lung and in the test with HCC-2998 colon was > 100 µM in each case.

For the compound `CCN(CC)C(=O)CCCCCn1c2ccccc2c2c3c(c4c5ccccc5[nH]c4c21)C(=O)N(O)C3=O`, the GI50 with UO-31 renal is 1.72 µM; in the test with RPMI-8226 leukemia, 3.06 µM; in the test with SK-MEL-28 melanoma, 5.38 µM; in the test on BT-549 breast, 4.66 µM; with SK-MEL-2 melanoma, 3.38 µM; in the test on DU-145 prostate, 6.5 µM. Moreover, the GI50 in the test with NCI/ADR-RES ovarian was 3.4 µM; with PC-3 prostate, 3.19 µM; with NCI-H460 lung it was 3.62 µM; in the test with HCC-2998 colon, 4.72 µM. The TGI was 4.22 µM with UO-31 renal; 11.3 µM in the test on RPMI-8226 leukemia; > 100 µM in the test with SK-MEL-28 melanoma; 48.5 µM in the test with BT-549 breast; 12.1 µM in the test with SK-MEL-2 melanoma; > 100 µM with DU-145 prostate. For the same compound, the TGI was > 100 µM in the test with NCI/ADR-RES ovarian, 52.9 µM in the test with PC-3 prostate, 15.4 µM with NCI-H460 lung and 27.1 µM in the test on HCC-2998 colon.

As for `CCc1c(C#N)c(SC(C(N)=O)c2ccccc2)nc(N2CCC(N)CC2)c1C#N` (stereo not given), the GI50 is > 100 µM in the test with UO-31 renal; 13.7 µM in the test with RPMI-8226 leukemia; 14.7 µM in the test with SK-MEL-28 melanoma; 13.6 µM in the test on BT-549 breast; 14.7 µM with SK-MEL-2 melanoma; 16.9 µM in the test with DU-145 prostate. Moreover, the GI50 with NCI/ADR-RES ovarian is > 100 µM; with PC-3 prostate it was 12.9 µM; with NCI-H460 lung, 16.1 µM; in the test with HCC-2998 colon it was 14.1 µM. The TGI was > 100 µM with UO-31 renal; 34.4 µM in the test with RPMI-8226 leukemia; 27.9 µM with SK-MEL-28 melanoma; 27.3 µM in the test on BT-549 breast; 28.5 µM in the test with SK-MEL-2 melanoma; 31.1 µM in the test with DU-145 prostate. Also, the TGI in the test with NCI/ADR-RES ovarian was > 100 µM; in the test on PC-3 prostate it was 26.5 µM; in the test with NCI-H460 lung, 30.7 µM; in the test on HCC-2998 colon, 27.1 µM.

Consider `O=C(Nc1nc2c(s1)CCc1c-2c(Br)n(Cc2ccccc2)c1Br)c1ccccc1`, for which the GI50 is 3.19 µM with UO-31 renal; 11.4 µM in the test on RPMI-8226 leukemia; 4.34 µM in the test with SK-MEL-28 melanoma; 2.53 µM in the test on BT-549 breast; 3.47 µM with SK-MEL-2 melanoma; 5.19 µM in the test with DU-145 prostate. Further, the GI50 in the test on NCI/ADR-RES ovarian is 21 µM; with PC-3 prostate, 4.26 µM; with NCI-H460 lung, 3.82 µM; in the test on HCC-2998 colon, > 100 µM. Further, the TGI in the test on UO-31 renal was 39.9 µM; with RPMI-8226 leukemia, > 100 µM; in the test on SK-MEL-28 melanoma, 70.7 µM; in the test with BT-549 breast, 8.01 µM; with SK-MEL-2 melanoma, 19.6 µM; in the test on DU-145 prostate, > 100 µM. For the same compound, the TGI in the test with NCI/ADR-RES ovarian, with PC-3 prostate, in the test with NCI-H460 lung and with HCC-2998 colon was > 100 µM each time.

On to `COC(=O)C1=Nc2ccc(F)cc2/C1=C/c1sc(=S)[nH]c1O`, for which the GI50 in the test with UO-31 renal was 0.457 µM; in the test with RPMI-8226 leukemia, 0.305 µM; in the test with SK-MEL-28 melanoma it was 1.06 µM; in the test on BT-549 breast, 0.161 µM; in the test on SK-MEL-2 melanoma it was 0.806 µM; with DU-145 prostate it was 0.222 µM. The GI50 was 0.0704 µM in the test with NCI/ADR-RES ovarian, 0.128 µM with PC-3 prostate, 0.0804 µM with NCI-H460 lung and 0.41 µM in the test with HCC-2998 colon. Besides, the TGI with UO-31 renal is 5.14 µM; in the test with RPMI-8226 leukemia it was 3.92 µM; in the test on SK-MEL-28 melanoma, > 83.5 µM; in the test with BT-549 breast it was 3.31 µM; with SK-MEL-2 melanoma it was 41 µM; with DU-145 prostate it was > 36.2 µM. Further, the TGI in the test on NCI/ADR-RES ovarian was found to be 11.5 µM; with PC-3 prostate, 26.3 µM; with NCI-H460 lung it was 10.1 µM; with HCC-2998 colon, 12.1 µM.

Take `Cc1cc2c(cc1C)[n+](=O)c(C(=O)/C=C/c1ccccc1[N+](=O)[O-])c(C)n2[O-]`: the TGI is > 100 µM in the test on UO-31 renal; > 100 µM in the test on RPMI-8226 leukemia; > 100 µM with SK-MEL-28 melanoma; > 100 µM in the test on BT-549 breast; 55.2 µM in the test on SK-MEL-2 melanoma; > 100 µM in the test with DU-145 prostate. For the same compound, the TGI in the test with NCI/ADR-RES ovarian, with PC-3 prostate, with NCI-H460 lung and with HCC-2998 colon was > 100 µM each time.

As for `Cc1ccc(C(=O)N2C/C(=C/c3ccccc3)C(=O)/C(=C/c3ccccc3)C2)cc1`, the GI50 in the test on UO-31 renal was 10.2 µM; in the test on RPMI-8226 leukemia it was 0.131 µM; in the test with SK-MEL-28 melanoma it was 8.98 µM; with BT-549 breast it was 3.42 µM; in the test on SK-MEL-2 melanoma, > 62.8 µM; with DU-145 prostate, 17.8 µM. The GI50 was 27.7 µM in the test with NCI/ADR-RES ovarian, 6.08 µM in the test with PC-3 prostate, 31 µM in the test on NCI-H460 lung and 3.08 µM in the test on HCC-2998 colon. For the same compound, the TGI was > 100 µM in the test on UO-31 renal; 0.971 µM in the test on RPMI-8226 leukemia; 68.9 µM with SK-MEL-28 melanoma; 15.8 µM in the test on BT-549 breast; > 100 µM in the test with SK-MEL-2 melanoma; > 100 µM in the test on DU-145 prostate. The TGI with NCI/ADR-RES ovarian was > 100 µM; with PC-3 prostate it was > 100 µM; with NCI-H460 lung it was > 100 µM; in the test on HCC-2998 colon, 8.67 µM.

Turning to `C=CC[PH+](c1ccccc1)c1ccccc1.C=CC[PH+](c1ccccc1)c1ccccc1.[Pt+2].[S-]c1ncccn1.[S-]c1ncccn1`, the GI50 in the test with UO-31 renal is 3.75 µM; in the test on RPMI-8226 leukemia it was 3.16 µM; in the test on SK-MEL-28 melanoma, 16.4 µM; in the test with BT-549 breast it was 25.1 µM; in the test with SK-MEL-2 melanoma it was 47.4 µM; with DU-145 prostate, 23.9 µM. For the same compound, the GI50 is 22.9 µM in the test on NCI/ADR-RES ovarian, 11 µM in the test on PC-3 prostate, 18.5 µM with NCI-H460 lung and 19.1 µM in the test on HCC-2998 colon. The TGI was 18 µM with UO-31 renal; 17.4 µM in the test with RPMI-8226 leukemia; 44.5 µM with SK-MEL-28 melanoma; > 100 µM in the test with BT-549 breast; > 100 µM in the test with SK-MEL-2 melanoma; > 100 µM in the test on DU-145 prostate. The TGI in the test with NCI/ADR-RES ovarian was > 100 µM; in the test on PC-3 prostate, 37.7 µM; with NCI-H460 lung, 48.1 µM; in the test with HCC-2998 colon it was 41.5 µM.
